# Measured values as given in paper PMC3726451, “Coumestrol from the national cancer Institute’s natural product library is a novel inhibitor of protein kinase CK2” (BMC Pharmacology & Toxicology, 2013).
# What was measured:
# [1] = biological target: T1, Casein kinase 2 (CK2) (Homo sapiens, UniProt P68400); test: ADP-Glo kinase assay, single concentration […], duplicates; type: biochemical; conditions: read-out: % inhibition at 10 μM
# T1 construct: gene CSNK2A1
# [2] = biological target: T2, vascular endothelial growth factor receptor 3 (VEGFR3) (Homo sapiens, UniProt P35916); test: ADP-Glo kinase selectivity panel, single concentration […] with […] ATP; type: biochemical
# T2 construct: gene FLT4
# T2 sequence (P35916 25-1363): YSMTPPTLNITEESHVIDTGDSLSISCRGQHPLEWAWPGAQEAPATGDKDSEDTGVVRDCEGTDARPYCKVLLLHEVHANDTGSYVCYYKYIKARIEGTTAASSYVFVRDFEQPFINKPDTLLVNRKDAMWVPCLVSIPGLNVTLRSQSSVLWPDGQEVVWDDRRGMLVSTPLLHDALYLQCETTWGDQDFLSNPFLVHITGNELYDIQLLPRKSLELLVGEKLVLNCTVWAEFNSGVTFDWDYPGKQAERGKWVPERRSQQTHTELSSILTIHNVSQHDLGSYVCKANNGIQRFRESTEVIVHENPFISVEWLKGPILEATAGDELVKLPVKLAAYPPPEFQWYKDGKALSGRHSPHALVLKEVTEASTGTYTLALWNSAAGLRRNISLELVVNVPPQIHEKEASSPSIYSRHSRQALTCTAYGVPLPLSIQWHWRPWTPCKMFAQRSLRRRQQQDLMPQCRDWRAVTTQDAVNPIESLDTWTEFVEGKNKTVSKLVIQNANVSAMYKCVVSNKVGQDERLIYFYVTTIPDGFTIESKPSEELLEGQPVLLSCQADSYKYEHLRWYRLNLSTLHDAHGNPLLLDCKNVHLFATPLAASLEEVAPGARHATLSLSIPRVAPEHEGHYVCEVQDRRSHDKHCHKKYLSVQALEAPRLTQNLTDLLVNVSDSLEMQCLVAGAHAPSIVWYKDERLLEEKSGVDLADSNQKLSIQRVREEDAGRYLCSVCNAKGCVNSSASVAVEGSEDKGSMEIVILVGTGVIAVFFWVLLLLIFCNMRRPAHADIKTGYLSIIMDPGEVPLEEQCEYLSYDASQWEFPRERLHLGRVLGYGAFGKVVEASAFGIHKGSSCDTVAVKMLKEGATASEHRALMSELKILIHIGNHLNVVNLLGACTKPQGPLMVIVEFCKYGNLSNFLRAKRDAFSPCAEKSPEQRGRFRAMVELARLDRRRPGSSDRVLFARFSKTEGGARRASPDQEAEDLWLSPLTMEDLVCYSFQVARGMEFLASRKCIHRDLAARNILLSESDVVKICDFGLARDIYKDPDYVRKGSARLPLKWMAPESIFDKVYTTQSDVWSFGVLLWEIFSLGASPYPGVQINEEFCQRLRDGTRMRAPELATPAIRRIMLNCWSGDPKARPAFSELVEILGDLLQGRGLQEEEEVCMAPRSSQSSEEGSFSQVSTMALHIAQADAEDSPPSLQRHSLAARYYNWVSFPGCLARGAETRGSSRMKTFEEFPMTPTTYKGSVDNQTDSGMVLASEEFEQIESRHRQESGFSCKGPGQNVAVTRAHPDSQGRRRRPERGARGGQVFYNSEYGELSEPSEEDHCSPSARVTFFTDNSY
# T1 sequence (P68400 whole entry): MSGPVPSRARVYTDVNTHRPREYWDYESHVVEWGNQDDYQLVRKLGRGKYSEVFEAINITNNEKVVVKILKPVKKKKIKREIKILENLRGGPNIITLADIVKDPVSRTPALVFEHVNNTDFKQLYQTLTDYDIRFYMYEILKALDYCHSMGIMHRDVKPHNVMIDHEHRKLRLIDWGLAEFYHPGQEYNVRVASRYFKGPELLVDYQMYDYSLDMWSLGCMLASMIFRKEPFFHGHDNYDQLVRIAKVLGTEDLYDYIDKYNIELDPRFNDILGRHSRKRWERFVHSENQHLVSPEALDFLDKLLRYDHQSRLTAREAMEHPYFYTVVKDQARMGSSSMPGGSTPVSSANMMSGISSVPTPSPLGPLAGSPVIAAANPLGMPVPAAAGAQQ
# T1 sequence (P67870 2-215 partner): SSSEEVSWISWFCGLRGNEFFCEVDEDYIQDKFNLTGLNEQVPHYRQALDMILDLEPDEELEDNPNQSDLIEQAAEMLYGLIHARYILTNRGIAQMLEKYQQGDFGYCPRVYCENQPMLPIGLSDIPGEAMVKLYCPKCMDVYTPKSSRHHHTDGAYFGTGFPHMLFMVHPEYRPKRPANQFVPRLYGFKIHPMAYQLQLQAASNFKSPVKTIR
inhibition at 10 µM [2] [%],SMILES,inhibition at 10 µM [1] [%]
,"COc1cccc2c1cc([N+](=O)[O-])c1c(C(=O)O)cc3c(c12)OCO3 [1-F3, 8-methoxy-6-nitro phenanthro[3,4-d] [1, 3] dioxole-5-carboxylic acid]",> 50
,"COc1cc(/C=C/C(=O)CC(=O)/C=C/c2ccc(O)c(OC)c2)ccc1O [1-D6, (1E,6E)-1,7-Bis(4-hydroxy-3-methoxyphenyl)-1,6-heptadiene-3,5-dione]",> 50
59,"O=c1oc2cc(O)ccc2c2oc3cc(O)ccc3c12 [1-F4, 3,9-Dihydroxy-6-benzofurano [3,2-c]chromenone]",
